# ChEMBL document CHEMBL1201862, “PubChem BioAssay data set” (2004)
# Activity calls are given as the source filed them.
# Columns and labels:
# [1] = target: 26S proteasome non-ATPase regulatory subunit 14 (Homo sapiens, UniProt O00487); test: inhibition of proteasome subunit RPN11 – biochemical, fluorescence polarization, uHTS hits, confirmation (AID 602368); assay type: functional
# [2] = viability of uninfected HEp-2 cells – cell-based, HTS, cytotoxicity control for RSV inhibitor project, dose response (AID 2410); assay type: functional; settings: human respiratory syncytial virus
# Prothrombin = Prothrombin (Bos taurus, UniProt P00735); test: thrombin protease inhibitors – biochemical, fluorescence polarization, uHTS hits, dose response (AID 602369); assay type: functional
# [3] = target: 72 kDa type IV collagenase (Homo sapiens, UniProt P08253); test: Dose Response validation of uHTS RPN11 inhibitor hits using a MMP-2 Fluorescence assay.; assay type: functional
# 72 kDa type IV collagenase, sequence (P08253 whole entry): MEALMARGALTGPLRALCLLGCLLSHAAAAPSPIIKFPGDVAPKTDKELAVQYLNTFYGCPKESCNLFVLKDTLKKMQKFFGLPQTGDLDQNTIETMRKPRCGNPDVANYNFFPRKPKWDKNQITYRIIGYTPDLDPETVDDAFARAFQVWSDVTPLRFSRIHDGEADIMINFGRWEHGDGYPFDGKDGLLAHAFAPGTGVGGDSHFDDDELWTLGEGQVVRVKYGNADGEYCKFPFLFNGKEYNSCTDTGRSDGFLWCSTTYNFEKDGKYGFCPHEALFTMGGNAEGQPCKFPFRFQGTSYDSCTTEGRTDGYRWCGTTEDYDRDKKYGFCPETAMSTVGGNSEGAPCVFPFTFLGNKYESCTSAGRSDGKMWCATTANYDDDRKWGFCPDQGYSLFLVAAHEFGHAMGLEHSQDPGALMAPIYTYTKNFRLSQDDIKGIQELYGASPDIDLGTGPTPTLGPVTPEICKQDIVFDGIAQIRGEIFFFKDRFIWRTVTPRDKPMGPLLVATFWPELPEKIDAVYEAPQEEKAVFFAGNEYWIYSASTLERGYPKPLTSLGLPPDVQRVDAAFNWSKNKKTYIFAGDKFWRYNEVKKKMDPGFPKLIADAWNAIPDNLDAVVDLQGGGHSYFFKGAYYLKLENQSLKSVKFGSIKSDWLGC
# [4] = MIN6 cell viability loss – mouse insulinoma, cytotoxicity control, dose response (AID 2122); assay type: functional;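 note: confirmatory high-throughput counterscreen run to flag cytotoxic compounds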
# [5] = DRD fibroblast viability loss – cell-based, non-viral oncogenic, luminescence, dose response (AID 1934); assay type: functional; settings: Homo sapiens
# cells [6] = assay type: functional, cell-based
# [7] = NIH-3T3 fibroblast cytotoxicity, dose response, cytotoxicity control, cell-based, fluorescence, Alamar Blue, secondary assay (AID 2327); assay type: functional;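 note: NIH-3T3 mouse fibroblasts cultured with fluconazole at 8 µg/mL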
# [8] = decrease of insulin promoter-GFP reporter – imaging, high-content screening, mouse beta cells (AID 1628); assay type: functional; settings: MIN6
# INS1 = test: INS-1E survival protection against cytokine death – cell-based, luminescence, retest, dose response (AID 449756); assay type: functional; settings: Rattus norvegicus;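 note: cell death triggered by IL-1 beta plus TNF-alpha plus IFN-gamma mixture; protective hits raise ATP signal compared with cytokine alone wells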
# [9] = NIH3T3 cell viability loss – ATP luminescence, mouse fibroblasts, counter-screen, dose response (AID 2010); assay type: functional, cell-based;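 note: cells exposed to compound for about 90 hours before reading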
# [10] = Luminescence Cell-Based Dose Response HTS to Identify Inhibitors of 5'UTR Stem-Loop Driven Prion Protein mRNA Translation in H4 Neuroglioblastoma Cells. [Related pubchem assays: 1827 (Project Summary), 1813 (Primary HTS)]; assay type: functional
# Cytochrome P450 3A4 = Cytochrome P450 3A4 (Homo sapiens, UniProt P08684);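 note: CYP3A4 tested as one member of a cytochrome P450 panel screen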
# Cytochrome P450 3A4, sequence (P08684 whole entry): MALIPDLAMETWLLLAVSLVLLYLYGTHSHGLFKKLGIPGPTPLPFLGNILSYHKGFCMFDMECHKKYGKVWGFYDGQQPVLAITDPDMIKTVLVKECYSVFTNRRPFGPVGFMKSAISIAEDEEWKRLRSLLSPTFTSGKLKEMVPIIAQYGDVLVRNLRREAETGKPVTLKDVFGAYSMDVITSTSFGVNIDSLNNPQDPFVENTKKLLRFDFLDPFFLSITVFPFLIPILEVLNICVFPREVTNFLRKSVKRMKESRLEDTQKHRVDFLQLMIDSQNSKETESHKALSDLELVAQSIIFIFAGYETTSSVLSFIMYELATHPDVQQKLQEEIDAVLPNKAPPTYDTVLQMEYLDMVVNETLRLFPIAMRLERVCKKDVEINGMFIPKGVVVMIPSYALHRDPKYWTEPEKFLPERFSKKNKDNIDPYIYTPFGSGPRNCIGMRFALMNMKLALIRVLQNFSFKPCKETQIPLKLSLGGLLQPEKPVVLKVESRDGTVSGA
# cells [11] = assay type: functional, cell-based; remark: listed apart in the source
# BJ [12] = test: BJ-TERT-LT-ST fibroblast viability loss – cell-based, RAS-independent, luminescence, dose response (AID 1935); assay type: functional; settings: Homo sapiens;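 note: BJ fibroblasts immortalized with TERT plus LT and ST oncogenes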
# [13] = alpha-synuclein stem-loop luciferase translation blockers – H4 neuroglioma cells, luminescence, confirmation (AID 1988); assay type: functional, cell-based
# BJ [14] = test: BJ-TERT fibroblast viability loss – cell-based, RAS-independent, luminescence, dose response (AID 1933); assay type: functional; settings: Homo sapiens
# HEK293 = test: EBV LMP1 TES2 canonical NF-kB signalling blockers – cell-based, HEK293, luciferase, cherry-pick, dose response (AID 588343); assay type: functional; settings: Homo sapiens
# [15] = luciferase reporter signal suppression in cells – H4 neuroglioma cells, luminescence, dose response (AID 1990); assay type: functional, cell-based
# BJ [16] = test: cells; assay type: functional, cell-based; settings: Homo sapiens
# [17] = Trypanosoma cruzi growth suppression in host cells – NIH3T3 host cells, beta-gal luminescence, confirmation (AID 2044); assay type: functional, cell-based;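 note: intracellular parasites grown in NIH/3T3 mouse fibroblasts as host cells; luminescent beta-galactosidase reporter signal from transgenic T. cruzi replicating inside host cells; inhibitors lower the luminescence signal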
# [18] = fluconazole-exposed Candida albicans growth modulators – fluorescence, retest, confirmation (AID 2467); assay type: functional, cell-based
# [19] = viability loss in HeLa cells – cytotoxicity control for MgcRacGAP inhibitor project, dose response (AID 624300); assay type: functional
# [20] = target: T1, Rac GTPase-activating protein 1 (Homo sapiens, UniProt Q9H0H5); test: blockers of MgcRacGAP-driven Rac1 GTP hydrolysis – biochemical, ADP Hunter fluorescence, primary and confirmatory, confirmation (AID 624330); assay type: functional
# T1 sequence (Q9H0H5 whole entry): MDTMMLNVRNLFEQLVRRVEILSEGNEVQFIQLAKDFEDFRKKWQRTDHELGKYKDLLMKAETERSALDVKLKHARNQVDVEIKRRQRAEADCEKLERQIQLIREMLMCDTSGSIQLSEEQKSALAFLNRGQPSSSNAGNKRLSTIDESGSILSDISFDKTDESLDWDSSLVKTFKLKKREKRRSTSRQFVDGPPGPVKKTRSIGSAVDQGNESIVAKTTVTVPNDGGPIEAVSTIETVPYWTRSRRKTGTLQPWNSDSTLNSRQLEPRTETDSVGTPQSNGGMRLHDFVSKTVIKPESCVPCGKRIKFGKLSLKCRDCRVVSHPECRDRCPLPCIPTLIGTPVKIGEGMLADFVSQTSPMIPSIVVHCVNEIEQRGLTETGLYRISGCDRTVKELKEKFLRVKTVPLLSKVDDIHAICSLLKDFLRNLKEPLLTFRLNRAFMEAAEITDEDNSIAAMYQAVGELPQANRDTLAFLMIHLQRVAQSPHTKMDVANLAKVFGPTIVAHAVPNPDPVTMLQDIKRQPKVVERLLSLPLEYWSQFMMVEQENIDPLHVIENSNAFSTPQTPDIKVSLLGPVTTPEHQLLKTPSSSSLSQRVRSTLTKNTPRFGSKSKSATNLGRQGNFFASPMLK
# [21] = (§1) Counterscreen for antagonists of the orexin 1 receptor (OX1R; HCRTR1): Fluorescence-based cell-based high throughput dose response assay to identify antagonists of the parental CHO cell line. [Related pubchem assays (depositor defined):AID434989, AID435008, AID463079, AID485270, AID492963, AID492964, AID492965, AID493232, AID504699, AID504701]; assay type: functional
# [22] = target: T2, Orexin/Hypocretin receptor type 1 (Homo sapiens, UniProt O43613); test: Homogeneous Time Resolved Fluorescence (HTRF)-based cell-based high throughput dose response assay for antagonists of the orexin 1 receptor (OX1R; HCRTR1). [Related pubchem assays (depositor defined):AID434989, AID435008, AID463079, AID485270, AID492963, AID492964, AID492965, AID493232, AID504717, AID504718]; assay type: functional
# T2 sequence (O43613 whole entry): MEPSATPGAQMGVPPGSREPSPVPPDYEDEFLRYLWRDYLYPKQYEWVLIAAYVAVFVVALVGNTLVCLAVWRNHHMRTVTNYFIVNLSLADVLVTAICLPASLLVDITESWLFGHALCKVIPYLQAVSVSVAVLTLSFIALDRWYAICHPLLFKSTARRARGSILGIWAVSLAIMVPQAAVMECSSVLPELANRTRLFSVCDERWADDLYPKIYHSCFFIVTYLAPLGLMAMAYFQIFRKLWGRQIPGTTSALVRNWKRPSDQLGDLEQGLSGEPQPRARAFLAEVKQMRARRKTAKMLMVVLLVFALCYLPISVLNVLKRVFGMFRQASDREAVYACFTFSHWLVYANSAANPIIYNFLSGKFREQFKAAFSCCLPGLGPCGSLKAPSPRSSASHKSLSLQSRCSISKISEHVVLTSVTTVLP
# CHO-K1 = test: as §1, with “Homogeneous time resolved fluorescence (HTRF)-based” for “Fluorescence-based”, “cell-based” for “cell-based high throughput”, “CHO-K1” for “CHO”; assay type: functional; settings: Cricetulus griseus;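 note: potency for inhibition of ATP-stimulated IP1 production as antagonists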
# Orexin receptor type 2 [23] = target: T3, Orexin receptor type 2 (Homo sapiens, UniProt O43614); test: Counterscreen assay for antagonists of the orexin 1 receptor (OX1R; HCRTR1): Fluorescence-based cell-based dose response assay for antagonists of the orexin 2 receptor (OX2R; HCRTR2), run by assay provider.; assay type: functional
# T3 sequence (O43614 whole entry): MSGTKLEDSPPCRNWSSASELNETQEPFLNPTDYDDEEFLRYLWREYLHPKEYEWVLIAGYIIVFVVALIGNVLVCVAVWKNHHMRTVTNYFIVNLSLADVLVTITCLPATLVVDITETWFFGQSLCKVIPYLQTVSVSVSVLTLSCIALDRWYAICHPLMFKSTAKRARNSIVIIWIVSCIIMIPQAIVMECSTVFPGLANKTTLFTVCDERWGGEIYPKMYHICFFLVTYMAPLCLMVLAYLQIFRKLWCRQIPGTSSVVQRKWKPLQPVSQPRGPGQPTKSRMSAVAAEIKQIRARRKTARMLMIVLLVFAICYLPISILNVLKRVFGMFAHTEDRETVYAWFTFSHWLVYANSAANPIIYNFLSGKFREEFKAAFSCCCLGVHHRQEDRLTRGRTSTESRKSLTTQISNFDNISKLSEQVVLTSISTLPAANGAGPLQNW
# [24] = target: T2, Orexin/Hypocretin receptor type 1; test: Fluorescence-based cell-based high throughput dose response assay for antagonists of the orexin 1 receptor (OX1R; HCRTR1). [Related pubchem assays (depositor defined):AID434989, AID435008, AID463079, AID485270, AID492963, AID492964, AID492965, AID493232, AID504717, AID504718]; assay type: functional
# Orexin receptor type 2 [25] = target: T3, Orexin receptor type 2; test: Counterscreen assay for antagonists of the orexin 1 receptor (OX1R; HCRTR1): Homogeneous Time Resolved Fluorescence (HTRF)-based cell-based dose response assay for antagonists of the orexin 2 receptor (OX2R; HCRTR2), run by assay provider.; assay type: functional
# [26] = microbe, parasite or virus in culture; assay type: functional; settings: Mycobacterium tuberculosis
# H4 = test: Luminescence Cell-Based Dose Response HTS to Identify Activators of 5'UTR Stem-Loop Driven Prion Protein mRNA Translation in H4 Neuroglioblastoma Cells. [Related pubchem assays: 1829 (Project Summary), 1814 (Primary HTS)]; assay type: functional; settings: Homo sapiens
# [27] = Luminescence Cell-Based Dose Response HTS to Identify Activators of Luciferase Translation or Activity in H4 […] Cells. [Related pubchem assays: 1829 (Project Summary), 1814 (Primary HTS)]; assay type: functional
# [28] = Luminescence Cell-Based Dose Confirmation HTS to Identify Activators of 5'UTR Stem-Loop Driven Alpha-Synuclein mRNA Translation in H4 Neuroglioblastoma Cells. [Related pubchem assays: 1829 (Project Summary), 1814 (Primary HTS)]; assay type: functional
# 26S proteasome non-ATPase regulatory subunit 14, sequence (O00487 whole entry): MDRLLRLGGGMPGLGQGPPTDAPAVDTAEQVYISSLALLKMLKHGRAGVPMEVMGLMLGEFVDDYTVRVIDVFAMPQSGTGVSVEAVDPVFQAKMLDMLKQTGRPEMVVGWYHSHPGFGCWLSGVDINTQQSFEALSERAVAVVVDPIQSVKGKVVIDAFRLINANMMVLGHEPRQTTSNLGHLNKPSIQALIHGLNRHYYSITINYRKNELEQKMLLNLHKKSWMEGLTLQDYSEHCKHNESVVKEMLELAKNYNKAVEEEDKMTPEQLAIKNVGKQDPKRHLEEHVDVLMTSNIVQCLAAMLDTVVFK
structure (smiles),measurement,setting,value
Cc1ccc(C2CC(c3cccs3)=NN2S(=O)(=O)c2ccc(C)cc2)cc1 (stereo not drawn),IC50,[1],43.4 µM (active)
same,CC50,[2],> 50 µM (active)
same,IC50,Prothrombin,55.9 µM (active)
same,IC50,[3],> 100 µM (inactive)
COc1ccc(O)c(/C=N/NC(=O)c2ccc(OCc3cccc(Br)c3)cc2)c1,IC50,[4],2.84 µM (active)
same,EC50,[5],16.3 µM (active)
same,EC50,cells [6],> 350 µM (not active)
same,EC50,[7],17.5 µM (inconclusive)
same,IC50,[8],3.56 µM (active)
same,AC50,INS1,2.61 µM (active)
same,IC50,[1],37.9 µM (active)
same,EC50,[9],7.23 µM (active)
same,IC50,Prothrombin,68.3 µM (active)
same,EC50,[10],6.79 µM (active)
same,AC50,Cytochrome P450 3A4,7.08 µM (inconclusive)
same,EC50,cells [11],> 350 µM (not active)
same,EC50,BJ [12],20.1 µM (active)
same,EC50,[13],2.97 µM (active)
same,IC50,[3],> 100 µM (inactive)
same,EC50,BJ [14],9.05 µM (active)
same,AC50,HEK293,3.86 µM (active)
same,EC50,[15],0.239 µM (active)
same,EC50,BJ [16],110 µM (active)
same,EC50,[17],0.77 µM (active)
same,EC50,[18],> 38 µM (not active)
Cc1c(C(=O)N/N=C/c2ccc(O)c(Br)c2)sc(N)c1C#N,CC50,[19],78.2 µM (active)
same,IC50,[1],49.8 µM (active)
same,IC50,Prothrombin,48.9 µM (active)
same,IC50,[20],97.3 µM (active)
same,IC50,[3],> 100 µM (inactive)
CCN(C(=O)CO/N=C/c1ccc(OC)cc1OC)c1c(N)n(Cc2ccccc2)c(=O)[nH]c1=O,IC50,[21],> 49.7 µM (inactive)
same,IC50,[22],0.317 µM (active)
same,IC50,CHO-K1,> 66.2 µM (inactive)
same,IC50,Orexin receptor type 2 [23],29 µM (inactive)
same,IC50,[24],5.93 µM (active)
same,IC50,Orexin receptor type 2 [25],1.77 µM (active)
C(=N\NC1=Nc2cccc3cccc1c23)/c1cccnc1,CC50,[26],> 40 µM (active)
same,IC50,[1],11.9 µM (active)
same,IC50,Prothrombin,14 µM (active)
same,EC50,H4,> 120 µM (not active)
same,IC50,[3],> 100 µM (inactive)
same,EC50,[27],2.39 µM (active)
same,EC50,[28],0.128 µM (active)
